Assay results published in US12371454B2, “Cyclic peptide compound having Kras inhibitory action” (priority 2019, dated 2025).
Starred links: 1 amine or outer side, 2 acyl side, 3 side chain; linkers in the order of their positions; H or OH if unused. Positions of bridges follow the written chain, without caps; N, C: chain ends. Non-standard residues stand in square brackets, D forms with d. Residues, ends and D or L forms follow the SMILES beside them. *: point of attachment. hPhe(3,5-F2-4-CF3) = N[C@@H](CCc1cc(F)c(C(F)(F)F)c(F)c1)C(=O)O; hPhe(3-Cl-4-CF3) = N[C@@H](CCc1ccc(C(F)(F)F)c(Cl)c1)C(=O)O; Phe(3,5-Cl2) = N[C@@H](Cc1cc(Cl)cc(Cl)c1)C(=O)O; X46 = COc1cncc(C[C@@H](C(=O)[*:2])N(C)[*:1])c1; NMePhe(4-Cl) = CN[C@@H](Cc1ccc(Cl)cc1)C(=O)O; NMePhe(4-Me) = CN[C@@H](Cc1ccc(C)cc1)C(=O)O; NMePhe(4-F) = CN[C@@H](Cc1ccc(F)cc1)C(=O)O; X53 = O=C([C@H](Cc1cccc(F)c1F)N[*:1])[*:2]; Leu(4,5-dehydro) = C=C(C)C[C@H](N)C(=O)O; Phe(3-Br) = N[C@@H](Cc1cccc(Br)c1)C(=O)O; NMeGly(cPent) = CN[C@H](C(=O)O)C1CCCC1; Phe(3-I) = N[C@@H](Cc1cccc(I)c1)C(=O)O; Pro(4,4-F2) = O=C(O)[C@@H]1CC(F)(F)CN1; NMeAla(cPr) = CN[C@@H](CC1CC1)C(=O)O; NMeY = CN[C@@H](Cc1ccc(O)cc1)C(=O)O; NMeCha = CN[C@@H](CC1CCCCC1)C(=O)O; NMeChg = CN[C@H](C(=O)O)C1CCCCC1; N(CH2CH2)2CF2 = FC1(F)CCN(*)CC1; NMeD = CN[C@@H](CC(=O)O)C(=O)O; NMeL = CN[C@@H](CC(C)C)C(=O)O; NMeV = CN[C@H](C(=O)O)C(C)C; d(β3hA) = C[C@@H](N)CC(=O)O; NMeAbu = CC[C@H](NC)C(=O)O; Pip = O=C(O)[C@@H]1CCCCN1; Morpholide = C1CN(*)CCO1; NMeA = CN[C@@H](C)C(=O)O; NMeAib = CNC(C)(C)C(=O)O; Nle = CCCC[C@H](N)C(=O)O; Piperidide = C1CCN(*)CC1; dNMeA = CN[C@H](C)C(=O)O; Ac5c = NC1(C(=O)O)CCCC1; Aze = O=C(O)[C@@H]1CCN1; Sar = CNCC(=O)O

What follows are molecules tested against T1, Kras and SOS1 (biotin-tagged human Kras loaded with GDP, His-tagged human SOS1) (Homo sapiens, UniProt P01116, G12D) (assay: Protein-protein interaction inhibition between Kras and SOS1 (KrasGl2D-SOS PPI) using AlphaScreen). Conditions: AlphaScreen; biotin-tagged human Kras loaded with GDP, His-tagged human SOS1; read-out: KRAS G12D-SOS PPI IC50.
T1 construct: made in house; host or cells: E. coli (stated for Kras only)
T1 sequence (P01116 1-188 isoform P01116-2 G12D): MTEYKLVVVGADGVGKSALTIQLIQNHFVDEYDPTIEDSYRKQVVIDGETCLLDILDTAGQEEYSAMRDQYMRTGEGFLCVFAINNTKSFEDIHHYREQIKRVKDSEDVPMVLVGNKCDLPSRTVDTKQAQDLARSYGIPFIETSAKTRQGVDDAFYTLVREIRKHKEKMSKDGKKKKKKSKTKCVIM
Assay type: binding
In short: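 AlphaScreen format: Ni donor beads capture His-SOS1, streptavidin acceptor beads capture biotinylated Kras (E. coli-expressed, GDP-loaded post-purification). Excite 680 nm, read 520-620 nm.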
`CCCC[C@@H]1NC(=O)[C@H](Cc2cccc(Br)c2)NC(=O)CN(C)C(=O)[C@H](Cc2ccc(Cl)cc2)N(C)C(=O)[C@@H]2CCN2C(=O)[C@H](C)N(C)C(=O)[C@H]([C@@H](C)CC)NC(=O)[C@H](CC(C)C)N(C)C(=O)C[C@@H](C(=O)N2CCCCC2)N(C)C(=O)[C@H](CC(C)C)NC(=O)C(C)(C)N(C)C1=O` [Compound 1415] ([NMeL]I[NMeA][Aze][NMePhe(4-Cl)][Sar][Phe(3-Br)][Nle][NMeAib]L[NMeD]-Piperidide; lactam N-11) was tested, and the IC50 was 34 nM.
Work on `CC[C@H](C)[C@@H]1NC(=O)[C@H](CC(C)C)N(C)C(=O)C[C@@H](C(=O)N2CCCCC2)N(C)C(=O)[C@H](C2CCCC2)N(C)C(=O)C2(CCCC2)NC(=O)[C@H](CC(=O)N2CCC(F)(F)CC2)N(C)C(=O)[C@H](CCc2ccc(C(F)(F)F)c(Cl)c2)NC(=O)CN(C)C(=O)[C@H](CC2CCCCC2)N(C)C(=O)[C@@H]2CCN2C(=O)[C@H](C)N(C)C1=O` [Compound 984] ([NMeL]I[NMeA][Aze][NMeCha][Sar][hPhe(3-Cl-4-CF3)][NMeD](N(CH2CH2)2CF2)[Ac5c][NMeGly(cPent)][NMeD]-Piperidide; lactam N-11) yielded an IC50 of 25 nM.
`CC[C@H](C)[C@@H]1NC(=O)[C@H](CC(C)C)N(C)C(=O)C[C@@H](C(=O)N2CCCCC2)N(C)C(=O)[C@H](C2CCCCC2)N(C)C(=O)C2(CCCC2)NC(=O)[C@H](Cc2cncc(OC)c2)N(C)C(=O)[C@H](CCc2ccc(C(F)(F)F)c(Cl)c2)NC(=O)CN(C)C(=O)[C@H](CC2CCCCC2)N(C)C(=O)[C@@H]2CCN2C(=O)CN(C)C1=O` [Compound 770] ([NMeL]I[Sar][Aze][NMeCha][Sar][hPhe(3-Cl-4-CF3)][X46][Ac5c][NMeChg][NMeD]-Piperidide; lactam N-11) was tested, and the IC50 was 20 nM.
`CC[C@H](C)[C@@H]1NC(=O)[C@H](C)N(C)C(=O)C[C@@H](C)NC(=O)[C@H](C2CCCC2)N(C)C(=O)C2(CCCC2)NC(=O)[C@@H]2CCCN2C(=O)[C@H](CCc2ccc(C(F)(F)F)c(Cl)c2)NC(=O)[C@H]2CCCN2C(=O)[C@H](Cc2ccc(C)cc2)N(C)C(=O)[C@@H]2CCN2C(=O)[C@H](C)N(C)C1=O` [Compound 1540] (cyclo([Ac5c][NMeGly(cPent)][d(β3hA)][NMeA]I[NMeA][Aze][NMePhe(4-Me)][dP][hPhe(3-Cl-4-CF3)]P)) was tested, and the IC50 was 230 nM.
`CC[C@H](C)[C@@H]1NC(=O)[C@H](C)N(C)C(=O)C[C@@H](C)NC(=O)[C@H](C2CCCC2)N(C)C(=O)C2(CCCC2)NC(=O)[C@@H]2CCCN2C(=O)[C@H](CCc2ccc(C(F)(F)F)c(Cl)c2)NC(=O)CN(C)C(=O)[C@H](CC2CCCCC2)N(C)C(=O)CN(C)C(=O)CN(C)C1=O` [Compound 1478] (cyclo([Ac5c][NMeGly(cPent)][d(β3hA)][NMeA]I[Sar][Sar][NMeCha][Sar][hPhe(3-Cl-4-CF3)]P)) was tested, and the IC50 was 3 nM.
For `CC[C@H](C)[C@@H]1NC(=O)[C@H](CC(C)C)N(C)C(=O)C[C@@H](C(=O)N2CCOCC2)N(C)C(=O)[C@H](C2CCCCC2)N(C)C(=O)C2(CCCC2)NC(=O)[C@@H]2CC(F)(F)CN2C(=O)[C@H](CCc2cc(F)c(C(F)(F)F)c(F)c2)NC(=O)CN(C)C(=O)[C@H](CC2CCCCC2)N(C)C(=O)CN(C)C(=O)CN(C)C1=O` [Compound 1337] ([NMeL]I[Sar][Sar][NMeCha][Sar][hPhe(3,5-F2-4-CF3)][Pro(4,4-F2)][Ac5c][NMeChg][NMeD]-Morpholide; lactam N-11), the IC50 was 0.55 nM.
In the case of `CCCC[C@@H]1NC(=O)[C@H](CCc2ccc(C(F)(F)F)c(Cl)c2)NC(=O)CN(C)C(=O)[C@H](Cc2ccc(Cl)cc2)N(C)C(=O)[C@@H]2CCN2C(=O)CN(C)C(=O)[C@H]([C@@H](C)CC)NC(=O)[C@@H]2CCCCN2C(=O)C[C@@H](C(=O)N2CCCCC2)N(C)C(=O)[C@H](CC(C)C)NC(=O)C(C)(C)N(C)C1=O` [Compound 352] ([Pip]I[Sar][Aze][NMePhe(4-Cl)][Sar][hPhe(3-Cl-4-CF3)][Nle][NMeAib]L[NMeD]-Piperidide; lactam N-11), the IC50 is reported as 5.5 nM.
For `CCCC[C@@H]1NC(=O)[C@H](Cc2cc(Cl)cc(Cl)c2)NC(=O)CN(C)C(=O)[C@H](Cc2ccc(Cl)cc2)N(C)C(=O)CN(C)C(=O)CN(C)C(=O)[C@H]([C@@H](C)CC)NC(=O)[C@H](CC(C)C)N(C)C(=O)C[C@@H](C(=O)N2CCCCC2)N(C)C(=O)[C@H](CC(C)C)NC(=O)C(C)(C)N(C)C1=O` [Compound 431] ([NMeL]I[Sar][Sar][NMePhe(4-Cl)][Sar][Phe(3,5-Cl2)][Nle][NMeAib]L[NMeD]-Piperidide; lactam N-11), the IC50 was 250 nM.
For `CCCC[C@@H]1NC(=O)[C@H](Cc2cccc(F)c2F)NC(=O)CN(C)C(=O)[C@H](Cc2ccc(OC)cc2)N(C)C(=O)[C@@H]2CCN2C(=O)[C@H](C)N(C)C(=O)[C@H]([C@@H](C)CC)NC(=O)[C@H](CC)N(C)C(=O)C[C@@H](C(=O)N2CCCCC2)N(C)C(=O)[C@H](CC(C)C)NC(=O)C(C)(C)N(C)C1=O` [Compound 1256] ([NMeAbu]I[NMeA][Aze][NMeY](Me)[Sar][X53][Nle][NMeAib]L[NMeD]-Piperidide; lactam N-11), the IC50 was 9.1 nM.
Molecule `CC[C@H](C)[C@@H]1NC(=O)[C@H](CC(C)C)N(C)C(=O)C[C@@H](C(=O)N2CCCCC2)N(C)C(=O)[C@H](C(C)C)N(C)C(=O)C2(CCCC2)NC(=O)[C@@H]2CCCN2C(=O)[C@H](CCc2ccc(C(F)(F)F)c(Cl)c2)NC(=O)CN(C)C(=O)[C@H](CC2CC2)N(C)C(=O)CN(C)C(=O)CN(C)C1=O` [Compound 325] ([NMeL]I[Sar][Sar][NMeAla(cPr)][Sar][hPhe(3-Cl-4-CF3)]P[Ac5c][NMeV][NMeD]-Piperidide; lactam N-11) has an IC50 of 14 nM.
`CC[C@H](C)[C@@H]1NC(=O)[C@H](CC(C)C)N(C)C(=O)C[C@@H](C)NC(=O)[C@H](C2CCCCC2)N(C)C(=O)C2(CCCC2)NC(=O)[C@@H]2CCCN2C(=O)[C@H](CCc2ccc(C(F)(F)F)c(Cl)c2)NC(=O)CN(C)C(=O)[C@H](Cc2ccc(C)cc2)N(C)C(=O)CN(C)C(=O)CN(C)C1=O` [Compound 1856] (cyclo([Ac5c][NMeChg][d(β3hA)][NMeL]I[Sar][Sar][NMePhe(4-Me)][Sar][hPhe(3-Cl-4-CF3)]P)) gave an IC50 of 5.4 nM.
For `CC[C@H](C)[C@@H]1NC(=O)[C@H](C)N(C)C(=O)C[C@@H](C)NC(=O)[C@H](C2CCCC2)N(C)C(=O)C2(CCCC2)NC(=O)[C@@H]2CCCN2C(=O)[C@H](CCc2ccc(C(F)(F)F)c(Cl)c2)NC(=O)[C@@H](C)N(C)C(=O)[C@H](Cc2ccc(F)cc2)N(C)C(=O)[C@@H]2CCN2C(=O)[C@H](C)N(C)C1=O` [Compound 584] (cyclo([Ac5c][NMeGly(cPent)][d(β3hA)][NMeA]I[NMeA][Aze][NMePhe(4-F)][dNMeA][hPhe(3-Cl-4-CF3)]P)), the IC50 was 31 nM.
With `C=C(C)C[C@@H]1NC(=O)[C@H](Cc2cccc(I)c2)NC(=O)CN(C)C(=O)[C@H](Cc2ccc(Cl)cc2)N(C)C(=O)[C@@H]2CCN2C(=O)[C@H](C)N(C)C(=O)[C@H]([C@@H](C)CC)NC(=O)[C@H](CC(C)C)N(C)C(=O)C[C@@H](C(=O)N2CCCCC2)N(C)C(=O)[C@H](CC(C)C)NC(=O)C(C)(C)N(C)C1=O` [Compound 1429] ([NMeL]I[NMeA][Aze][NMePhe(4-Cl)][Sar][Phe(3-I)][Leu(4,5-dehydro)][NMeAib]L[NMeD]-Piperidide; lactam N-11) the IC50 was 44 nM.
